Measurements: patent publication US20220267231A1, “FERTILIZER CONTAINING A SEED GRIND AND A METHOD OF USING THE FERTILIZER TO ENHANCE PLANT GROWTH” (Innovations for World Nutrition, LLC, priority 2020, published 2022)

How the values were obtained:
Type in all cases: in vivo
cotton = assay: Early growth of cotton in transparent cups, dry weight of plants and roots; conditions: cotton cup test
Experimental: Each cup was given 0.2 g urea in 25 mL of solution. […] The cups holding the soil were transparent plastic and were placed inside opaque cups. The seeds were planted in the soil against the inside surface of the transparent cups and the outer opaque cups protected the roots from light during growth. By removing the inner cups, the roots were viewed and pictures taken without disturbing the plants as they were developing and therefore a view of the early growth of the roots was possible. […] If two seeds sprouted in a cup, the second was immediately removed.

corn = assay: Early growth of corn in transparent cups, dry weight of seedlings; conditions: for Dry Weight of Roots / Total Dry Weight of Plant + Roots / % Difference from Baseline for Plant + Roots / % Difference from Baseline for Roots Only: corn; for Dry Weight of Roots / Total Dry Weight of Plant + Roots: 24 days after planting, .P buried at planting, .L buried 11 days after planting; for % Difference from Baseline for Plant + Roots / % Difference from Baseline for Roots Only: 24 days, compared to the baseline with the highest total weight
Experimental: Each cup was given 0.2 g urea in 25 mL of solution. Two corn seeds were planted in each cup 1 inch deep and 3 inches apart. The cups holding the soil were transparent plastic and were placed inside opaque cups. The seeds were planted in the soil against the inside surface of the transparent cups and the outer opaque cups protected the roots from light during growth. By removing the inner cups, the roots were viewed and pictures taken without disturbing the plants as they were developing and therefore a view of the early growth of the roots was possible. […] After planting the seeds, the mixtures in Table 12 were buried 1.27 cm (½ inch) deep in the center of each cup. Some of these were buried on the same day as the seed was planted (noted as .P in Table 13), and others were buried 11 days after the seed was planted (noted as .L in Table 13). […] If two seeds sprouted in a cup, the second was immediately removed. One cup for each formulation was tested. The baseline was tested in duplicate. Twenty-four days after planting the corn, the plants with roots were gently removed from the cups, rinsed, dried, and weighed. The % differences shown in Table 13 are compared to the baseline with the highest weight of total weight for the plant and roots.

wheat = assay: Early growth of wheat in transparent cups, dry weight of seedlings; conditions: for Dry Weight of Roots Only / Dry Weight of Total Plant + Roots: 28 days after planting, .P buried at planting, .L buried 11 days after planting; for % Difference for Plant + Roots / % Difference for Roots Only: 28 days, compared to the baseline with the highest total weight
Experimental: Each cup was given 0.2 g urea in 25 mL of solution. Four wheat seeds were planted in each cup 1 inch deep and 3 inches apart. The cups holding the soil were transparent plastic and were placed inside opaque cups. The seeds were planted in the soil against the inside surface of the transparent cups and the outer opaque cups protected the roots from light during growth. By removing the inner cups, the roots were viewed and pictures taken without disturbing the plants as they were developing and therefore a view of the early growth of the roots was possible. […] After planting the seeds, the mixtures in Table 12 were buried 1.27 cm (½ inch) deep in the center of each cup. Some of these were buried on the same day as the seeds were planted (noted as .P in Table 14), and others were buried 11 days after the seed was planted (noted as .L in Table 14). If more than two seeds sprouted in a cup, the seedlings were removed to allow only two to remain. One of each formulation was tested. The baseline was tested in duplicate. Twenty-eight days after planting the wheat, the plants with roots were gently removed from the cups, rinsed, dried, and weighed.

O=C([O-])O.[K+] [KBC, potassium bicarbonate]
Early growth of cotton plants and roots (in words) (cotton): produced more benefit with early growth of cotton than sodium bicarbonate | Benefit to early growth of corn (in words) (corn; corn cup test): did not provide a benefit

O=C([O-])O.[K+] [A.P, potassium bicarbonate]
Dry Weight of Roots (corn): 0.2313 g | Total Dry Weight of Plant + Roots (corn): 0.5292 g | Dry Weight of Roots (corn; listed as A.L): 0.4121 g | Total Dry Weight of Plant + Roots (corn; listed as A.L): 0.7818 g | % Difference from Baseline for Plant + Roots (corn): −20% | % Difference from Baseline for Roots Only (corn): −29% | % Difference from Baseline for Plant + Roots (corn; listed as A.L): 18% | % Difference from Baseline for Roots Only (corn; listed as A.L): 26% | Dry Weight of Roots Only (wheat): 0.0669 g | Dry Weight of Total Plant + Roots (wheat): 0.2337 g | Dry Weight of Roots Only (wheat; listed as A.L): 0.1166 g | Dry Weight of Total Plant + Roots (wheat; listed as A.L): 0.2670 g | % Difference for Plant + Roots (wheat): −8% | % Difference for Roots Only (wheat): −46% | % Difference for Plant + Roots (wheat; listed as A.L): 5% | % Difference for Roots Only (wheat; listed as A.L): −6%

O=C([O-])O.[K+] [H.P, potassium bicarbonate]
Dry Weight of Roots (corn): 0.2744 g | Total Dry Weight of Plant + Roots (corn): 0.5252 g | Dry Weight of Roots (corn; listed as H.L): 0.2538 g | Total Dry Weight of Plant + Roots (corn; listed as H.L): 0.5597 g | % Difference from Baseline for Plant + Roots (corn): −20% | % Difference from Baseline for Roots Only (corn): −16% | % Difference from Baseline for Plant + Roots (corn; listed as H.L): −15% | % Difference from Baseline for Roots Only (corn; listed as H.L): −22% | Dry Weight of Roots Only (wheat): 0.1334 g | Dry Weight of Total Plant + Roots (wheat): 0.3030 g | Dry Weight of Roots Only (wheat; listed as H.L): 0.1286 g | Dry Weight of Total Plant + Roots (wheat; listed as H.L): 0.2881 g | % Difference for Plant + Roots (wheat): 19% | % Difference for Roots Only (wheat): 7% | % Difference for Plant + Roots (wheat; listed as H.L): 13% | % Difference for Roots Only (wheat; listed as H.L): 3%
